Test results taken from patent publication US6365359B1 (The Regents of the University of California, priority 1997, dated 2002).
Where a SMILES comes first, the peptide text is derived from it. [ ]: non-standard residue; d: D form. The star is where a group is joined. AMC = Cc1cc(=O)oc2cc(N*)ccc12; pGlu = O=C1CC[C@@H](C(=O)O)N1; Cbz = O=C(OCc1ccccc1)*

system: PrP^Sc formation in transiently transfected ScN2a cells; assay type: cell-based, mouse

Molecule	Results (effect on transiently transfected ScN2a cells; inhibitory effect on PrP^Sc formation)
OC[C@H]1O[C@@H](n2cnc3cncnc32)[C@H](O)[C@@H]1O [Compound 18, Purine Riboside]	Positive
CN(C)c1ncnc2c1ncn2[C@@H]1O[C@H](CO)[C@@H](N)[C@H]1O [Compound 16, Puromycin Aminonucleoside]	Negative
[Mei(O)4, D-Lyss, Pho9]-Fragment 4-9 [Compound 30]	Negative
Cn1c(=O)c2c(ncn2C)n(C)c1=O [Compound 13, Caffeine, reference compound]	Negative
CN[C@@H]1[C@@H](O)[C@@H](O[C@@H]2[C@@H](O)[C@H](O[C@H]3OC(CN)=CC[C@H]3N)[C@@H](N)C[C@H]2N)OC[C@]1(C)O [Compound 23, Sisomycin, reference compound]	Negative
NC(=NO)c1nc[nH]c1N [Compound 37, Amino Imidazole Carobxamidoxime]	Negative
2′-O-Anthramiloy Indenosine 3′5′-Cyclic Monophosphate [Compound 40]	Negative
CC1(C)C(=O)NC(=O)N1SN1C(=O)NC(=O)C1(C)C [Compound 44, 1,1, Thhiobis 5,5′ Dimethyl hydratoin]	Negative
NC[C@@H]1CC[C@@H](N)[C@@H](O[C@H]2[C@H](O)[C@@H](O[C@H]3O[C@H](CO)[C@@H](O)[C@H](N)[C@H]3O)[C@H](N)C[C@@H]2N)O1 [Compound 22, Dibekacin, reference compound]	Negative
Nc1ccn([C@@H]2O[C@H](CO)[C@@H](OP(=O)(O)OC[C@H]3O[C@@H](n4cnc5c(=O)[nH]c(N)nc54)[C@H](O)[C@@H]3O)[C@H]2O)c(=O)n1 [Compound 10, Cytidylyl (3′5′) Guanosine]	Negative
CN1C(=O)C(CCCNC(=N)N)NC1=S.Cl (racemic) [Compound 34, MTH-DL-Arginine HCI]	Negative
NCC[C@H](O)C(=O)N[C@@H]1C[C@H](N)[C@@H](O[C@H]2O[C@H](CN)[C@@H](O)[C@H](O)[C@H]2O)[C@H](O)[C@H]1O[C@H]1O[C@H](CO)[C@@H](O)[C@H](N)[C@H]1O [Compound 39, Amikacin, reference compound]	Negative
NC[C@H]1O[C@H](O[C@H]2[C@H](O)[C@@H](O)[C@H](N)C[C@@H]2N)[C@H](N)[C@@H](O)[C@@H]1O [Compound 9, Neamine]	Negative
Leu-Asp-Val-Pro-Ser (LDVPS; printed: Leu-Asp-Val-Pro-Ser) [Compound 57]	Negative
[H]/N=C(/N)N[C@H]1[C@H](O)[C@@H](O)[C@H](O[C@@H]2O[C@@H](C)[C@](O)(C=O)[C@H]2O[C@@H]2O[C@@H](CO)[C@H](O)[C@@H](O)[C@@H]2NC)[C@@H](N/C(N)=N\[H])[C@@H]1O [Compound 42, Streptomycin, reference compound]	Negative
NC(=O)NC(NC(N)=O)C(=O)O [Compound 38, Allentoic Acid]	Negative
O=C(O)C(Cc1cnc[nH]1)N1C(=O)c2ccccc2C1=O (racemic) [Compound 45, N Phrhaloyl-DL-Histidine]	Negative
COc1ccc(OC)c(NC(=N)N)c1.O=C(O)O [Compound 51, 2,5 Dimethoxy-phenylguanidine Carbonate]	Negative
CC(=O)O[C@@H]1[C@H](OC(C)=O)[C@@H](CO)O[C@H]1n1cnc2c(N)ncnc21 [Compound 32, 2′3′-Di-O-Acetyladenosine]	Positive
O=P(O)(O)O[C@H]1[C@@H](O)[C@H](n2cnc3c(O)ncnc32)O[C@@H]1CO [Compound 36, Inosine 3′-Monophosphate]	Negative
NC[C@H]1O[C@H](O[C@H]2[C@H](O[C@@H]3O[C@H](CO)[C@@H](O)[C@H]3O)[C@@H](O)[C@H](N)C[C@@H]2N)[C@H](N)[C@@H](O)[C@@H]1O [Compound 21, Ribostamycin, reference compound]	Negative
Nc1ncnc2c1ncn2[C@H]1O[C@H](CO)[C@@H](O)[C@H]1O [Compound 3, α-Adenosine]	Negative
BOC-Val-Gly-Arg-βNa-AcOH [Compound 49]	Negative

Molecule	Results (effect on transiently transfected ScN2a cells; inhibitory effect on PrP^Sc formation)
Nc1ncnc2c1ncn2[C@@H]1O[C@H](CO)[C@H]2OP(=O)([O-])O[C@H]21.[Na+] [Compound 29, Adenosine 2′3′cyclic monophosphase sodium salt]	Negative
6-Morpholino-5-Nitroimidazol [Compound 66]	Negative
O=C(O)/C=C/c1c[nH]cn1 [Compound 1, Urocanic Acid]	Negative
Nc1nc2c(ncn2[C@@H]2O[C@H](COP(=O)(O)O[C@@H]3[C@H](O)[C@@H](CO)O[C@H]3n3cnc4c(=O)[nH]c(N)nc43)[C@@H](O)[C@H]2O)c(=O)[nH]1 [Compound 28, Guanylyl (2′5′)Guanosine]	Negative
Cc1cc(=O)oc2cc(NC(=O)[C@H](CCCNC(=N)N)NC(=O)[C@H](Cc3ccccc3)NC(=O)OCc3ccccc3)ccc12.Cl [Compound 53, Z-Phenyl-Arginyl-7-Amido-4-Methylcoumarin Hcl] (Cbz-Phe-Arg-{AMC})	Negative
Br.N=C(N)NCCC[C@H](NC(=O)OCc1ccccc1)C(=O)OCc1ccc([N+](=O)[O-])cc1 [Compound 54, Z-ARG-OBZL (P-NO2)HBR]	Negative
NCCC(O)C(=O)NC1CC(N)C(OC2OC(CN)C(O)[C@H](O)[C@@H]2N)[C@H](OC2O[C@H](CO)[C@@H](O)[C@@H]2O)[C@@H]1O.O=S(=O)(O)O.O=S(=O)(O)O (stereo partly drawn) [Compound 15, Butirosin Disulfate Salt, reference compound]	Negative
NC(=O)c1ccc(C(=O)O)cc1C(=O)O [Compound 41, Trimellitic Acid Amide]	Negative
H-Ala-Arg-Oh Acetate [Compound 5]	Negative
O=P(O)(O)OC[C@H]1O[C@@H](n2cnc3c2ncn2ccnc32)[C@H](O)[C@@H]1O [Compound 7, 1, N6-Ethenoadenosine-5′-Monophosphate]	Positive
N=C(N)c1ccc(-c2cc3ccc(C(=N)N)cc3[nH]2)cc1 [Compound 14, 4′,6-Diamidino-2 Phenylindole]	Negative
Naphtha (Terbutoxycarbonyl)-L-Arginine [Compound 2]	Negative
PGlu-Gly-Arg-Phe Amide ([pGlu]GRF-NH2; SMILES N=C(N)NCCC[C@H](NC(=O)CNC(=O)[C@@H]1CCC(=O)N1)C(=O)N[C@@H](Cc1ccccc1)C(N)=O) [Compound 20]	Negative
[Glu]-TRH [Compound 55]	negative
N=C(N)c1ccc(Oc2ccc(-c3cc4ccc(C(=N)N)cc4[nH]3)cc2)cc1 [Compound 25, Amidinophenyl (6 Amidino-2-indolyl)Phenyl Ether]	Negative
CC(=O)O[C@@H]1[C@H](OC(C)=O)[C@@H](CO)O[C@H]1n1cnc2c(=O)[nH]c(N)nc21 [Compound 17, 2′3′-Di-O-Acetylguanoside]	Negative
Hydroxyguanidino-purine Riboside [Compound 26]	Negative
CCCCC(NC(=O)CCl)C(=O)O (racemic) [Compound 6, Chloroacetyl-DL-Nortencine]	Negative
Nc1ccn([C@@H]2O[C@H](COP(=O)(O)O[C@H]3[C@@H](O)[C@H](n4cnc5c(N)ncnc54)O[C@@H]3CO)[C@@H](O)[C@H]2O)c(=O)n1 [Compound 27, Adenylyl (3′5′)Cytidine]	Negative
Cl.NC(N)=NC(=O)c1nc(Cl)c(N)nc1N [Compound 69, Amiloride-HCI, reference compound]	Negative
Nc1ccc(Cc2ccc(N)cc2[N+](=O)[O-])cc1 [Compound 47, 3 mitro 4,4′ methylamediamiline]	Negative
O=C(NC(CO)Cc1c[nH]cn1)c1ccccc1 [Compound 48, n-alphabenzoyl-L-Histidinol]	Negative
